From patent publication US5178873A, “Essential fatty acid treatment” (Efamol Holdings PLC, priority 1990, dated 1993)

Experiments:
[1] = tested on: human epidermal PLA2; assay: inhibition of human epidermal PLA2 activity by fatty acids (1-palmitoyl 2-1-^14 C. palmitoyl phosphatidyl choline substrate); assay type: biochemical; conditions: for IC50: purified human epidermal enzyme, standard assay with 1-palmitoyl 2-1-^14 C. palmitoyl phosphatidyl choline; for ability to inhibit PLA2, ranking among fatty acids tested: PLA2 isolated from human skin, stated for both test systems
Protocol: (§1) In the experimental work on which the above discussion is based, epidermal PLA2 was prepared from isolated mouse or human epidermal cells by detergent solubilisation, ion exchange chromatography and gel filtration. Both enzymes had molecular weights in the region of 68,000, a pH optimum around 9.0 and an absolute requirement for calcium ions. Phospholipids were prepared as both unilamellar vesicles and detergent micelles. PLA2 activity was readily detected using these substrates, with no apparent preference for polar head group. For the standard assay, 1-palmitoyl 2-1-^14 C. palmitoyl phosphatidyl choline was used. The reaction was initiated by the addition of purified enzyme and terminated by the addition of chloroform/methanol/acetic acid (3:4:1). The free fatty acid was extracted, separated by thin layer chromatography and quantified by scintillation counting. Ranges of concentrations of various fatty acids were added to the reaction mixture to assess their ability to inhibit PLA2. Dose response curves were constructed and the IC50 value (the concentration of fatty acid required to inhibit enzyme activity by 50%) was estimated. Similar experiments were performed using macrophages isolated from rat peritoneal cavity by lavage.

[2] = tested on: rat macrophage PLA2; assay: inhibition of rat macrophage PLA2 activity by fatty acids; assay type: biochemical; conditions: for IC50: macrophages isolated from rat peritoneal cavity by lavage; for ability to inhibit PLA2, ranking among fatty acids tested: PLA2 from rat macrophages, stated for both test systems
Protocol: as §1

CCCCC/C=C\C/C=C\C/C=C\CCCCCCC(=O)O [cis 8,11,14-eicosatrienoic]
IC50 [1]: 61 ± 5 µM | IC50 [2]: 71 ± 11 µM

CCCCC/C=C\C/C=C\CCCCCCCCCC(=O)O [20:2 cis 11,14-eicosadienoic, cis 11,14-eicosadienoic]
IC50 [1]: 87 ± 6 µM

CC/C=C\C/C=C\C/C=C\C/C=C\C/C=C\CCCC(=O)O [cis 5,8,11,14,17-eicosapentaenoic]
IC50 [1]: 58 ± 4 µM

CCCCC/C=C\C/C=C\CCCCCCCC(=O)O [18:2 cis 9,12-octadecadienoic (linoleic), delta-9,12-octadecadienoic acid]
IC50 [1]: 85 ± 5 µM

CCCCC/C=C\C/C=C\C/C=C\C/C=C\CCCC(=O)O [20:4 cis 5,8,11,14-eicosatetraenoic (AA), cis 5,8,11,14-eicosatetraenoic]
ability to inhibit PLA2, ranking among fatty acids tested [1]: closest to SA in its ability to inhibit PLA2 | IC50 [1]: 45 ± 8 µM | ability to inhibit PLA2, ranking among fatty acids tested [2]: closest to SA in its ability to inhibit PLA2 | IC50 [2]: 65 ± 8 µM

CCCCCCCC/C=C\CCCCCCCCCC(=O)O [20:1 cis 11-eicosenoic, cis 11-eicosenoic]
IC50 [1]: > 100 µM | IC50 [2]: > 100 µM

CC/C=C\C/C=C\C/C=C\C/C=C\CCCCC(=O)O [delta-6,9,12,15-octadecatetraenoic acid]
ability to inhibit PLA2, ranking among fatty acids tested [1]: the most potent of all the fatty acids tested | IC50 [1]: 37 ± 3 µM | ability to inhibit PLA2, ranking among fatty acids tested [2]: the most potent of all the fatty acids tested | IC50 [2]: 52 ± 8 µM

CCCCC/C=C\C/C=C\C/C=C\CCCCC(=O)O [cis 6,9,12-octadecatrienoic]
IC50 [1]: 52 ± 3 µM

CC/C=C\C/C=C\C/C=C\CCCCCCCC(=O)O [cis 9,12,15-octadecatrienoic]
IC50 [1]: 45 ± 6 µM | IC50 [2]: 75 ± 9 µM

CCCCCCCCCCC/C=C\CCCCC(=O)O [18:1 cis 6-octadecenoic, cis 6-octadecenoic]
IC50 [1]: > 100 µM | IC50 [2]: > 100 µM
